Reference: patent publication US20210116454A1, “METHODS FOR TREATING A HEMATOLOGICAL CANCER AND THE USE OF COMPANION BIOMARKERS FOR 2-(2,6-DIOXOPIPERIDIN-3-YL)-4-((2-FLUORO-4-((3-MORPHOLINOAZETIDIN-1-YL)METHYL)BENZYL)AMINO)ISOINDOLINE-1,3-DIONE” (CELGENE CORPORATION, priority 2019, published 2021)

Assays:
Assay in all cases: 5-day viable cell number and apoptosis (7-AAD exclusion/Annexin V flow cytometry)
Type in all cases: cell-based
Pfeiffer = conditions: Homo sapiens; Pfeiffer cells (Table 3)
Text: (§1) The DLBCL panel includes seven cell lines classified as activated B-cell (ABC) subtype, thirteen cell lines classified as the germinal center B-cell (GCB) subtype, and three cell lines classified as primary mediastinal B-cell lymphoma (PMBL). […] The translocation of MYC, BCL6, or BCL2 to an IG locus usually leads to high levels of mRNA and protein due to the active transcription driven by a constitutively active IG promoter. […] Expressions of CRBN protein and known substrates, Ikaros, Aiolos, and ZFP91 were also evaluated (FIG. 1, panels B and C).
(§2) The panel of cell lines were treated with increasing doses of compounds for five days, at which time the number of viable cells was measured and the amount of apoptosis was determined by 7-AAD exclusion and Annexin V staining using flow cytometry.

SU-DHL-4 = conditions: Homo sapiens; SU-DHL-4 cells (Table 3); read-out: IC50
Text: as §1, §2

RIVA = RIVA cells (Table 3); read-out: IC50
Text: as §1, §2

KARPAS-1106P = conditions: Homo sapiens; KARPAS-1106P cells (Table 3); read-out: IC50
Text: as §1, §2

RC-K8 = conditions: Homo sapiens, RCK8; RC-K8 cells (Table 3); read-out: IC50
Text: as §1, §2

OCI-LY-19 = conditions: Homo sapiens, OCI-LY19; OCI-LY-19 cells (Table 3); read-out: IC50
Text: as §1, §2

OCI-LY-3 = conditions: Homo sapiens, OCI-Ly3; OCI-LY-3 cells (Table 3)
Text: as §1, §2

HT = conditions: Homo sapiens; HT cells (Table 3); read-out: IC50
Text: as §1, §2

Toledo = conditions: Homo sapiens; Toledo cells (Table 3); read-out: IC50
Text: as §1, §2

SU-DHL-8 = conditions: Homo sapiens; SU-DHL-8 cells (Table 3); read-out: IC50
Text: as §1, §2

TMD8 = conditions: Homo sapiens; TMD8 cells (Table 3); read-out: IC50
Text: as §1, §2

OCI-LY-7 = conditions: Homo sapiens, OCI-Ly7; OCI-LY-7 cells (Table 3); read-out: IC50
Text: as §1, §2

WSU-DLCL2 = conditions: Homo sapiens, WSUDLCL2; WSU-DLCL2 cells (Table 3); read-out: IC50
Text: as §1, §2

OCI-Ly10 = conditions: Homo sapiens; OCI-Ly10 cells (Table 3); read-out: IC50
Text: as §1, §2

U2932 = conditions: Homo sapiens; U2932 cells (Table 3); read-out: IC50
Text: as §1, §2

In the case of COc1cccc2c1C(=O)c1c(O)c3c(c(O)c1C2=O)C[C@@](O)(C(=O)CO)C[C@@H]3O[C@H]1C[C@H](N)[C@H](O)[C@H](C)O1 [Doxorubicin, reference compound], the IC50 (Pfeiffer) is reported as 3000 nM, the IC50 (SU-DHL-4) is reported as 1000 nM and the IC50 (RIVA) is reported as 5500 nM. The IC50 (KARPAS-1106P) was 1700 nM, the IC50 (RC-K8) was 3500 nM and the IC50 (OCI-LY-19) was 2000 nM. The IC50 (OCI-LY-3) was 11600 nM, the IC50 (HT) was 2000 nM and the IC50 (Toledo) was 4000 nM. The IC50 (SU-DHL-8) was 600 nM, the IC50 (TMD8) was 700 nM and the IC50 (OCI-LY-7) was 5000 nM. The IC50 (WSU-DLCL2) was 1500 nM, the IC50 (OCI-Ly10) was 3000 nM and the IC50 (U2932) was 3000 nM.
